Experimental data: ChEMBL document CHEMBL1142310, “Design and synthesis of substituted 4-oxo-4,5,6,7-tetrahydropyrazolo[1,5-a]pyrazine-2-carboxamides, novel HIV-1 integrase inhibitors” (Bioorg Med Chem Lett, 2008)

Experiments:
[1] = Inhibition of HIV1 integrase strand transfer activity; parameters: species or system Human immunodeficiency virus 1
[2] = system: Human immunodeficiency virus 1; assay: Antiviral activity against HIV1 infected MT4 cells in presence of 10% FBS; type: functional; conditions: Human immunodeficiency virus 1, MT4
[3] = system: Human immunodeficiency virus 1; assay: Antiviral activity against HIV1 infected MT4 cells in presence of 50% NHS; type: functional, organism-based; conditions: Human immunodeficiency virus 1, MT4

Row | SMILES | IC50 [1] [nM] | IC50 [3] [nM] | IC95 [2] [nM] | IC95 [3] [nM]
1 | CC1Cn2nc(C(=O)NCc3ccc(F)cc3)c(O)c2C(=O)N1C (stereo not given) | 40 | – | – | –
2 | CNC(=O)c1cc(F)ccc1CNC(=O)c1nn2c(c1O)C(=O)N(C)C[C@@H]2c1ccccc1 | 74 | – | 63 | 63
3 | CN1C(=O)c2c(O)c(C(=O)NCc3ccc(F)cc3)nn2CC1c1ccccc1 (stereo not given) | 110 | – | – | –
4 | CNC(=O)c1cc(F)ccc1CNC(=O)c1nn2c(c1O)C(=O)N(C)C[C@H]2c1ccccc1 | 62 | – | 250 | 250
5 | CN1CCCn2nc(C(=O)NCc3ccc(F)cc3)c(O)c2C1=O | 470 | – | – | –
6 | CNC(=O)c1nn2c(c1O)C(=O)N(Cc1ccc(F)cc1)CC2 | 40 | > 10000 | 5000 | –
7 | CC(C)C1CN(C)C(=O)c2c(O)c(C(=O)NCc3ccc(F)cc3)nn21 (stereo not given) | 20 | – | 63 | 250
8 | CN1CCn2cc(C(=O)NCc3ccc(F)cc3)c(O)c2C1=O | 400 | – | – | –
9 | CNC(=O)c1nn2c(c1O)C(=O)N(Cc1ccc(F)cc1)CC2c1ccccc1 (stereo not given) | 130 | – | 10000 | > 10000

Now those with a lower IC50 [1], led by results:

Row | IC50 [1] [nM] | IC50 [3] [nM] | SMILES | IC95 [2] [nM] | IC95 [3] [nM]
10 | ≤ 10 | – | CN1CC(c2cccnc2)n2nc(C(=O)NCc3ccc(F)cc3)c(O)c2C1=O (stereo not given) | 250 | 500
11 | ≤ 10 | – | CN1CC(c2ccccc2)n2nc(C(=O)NCc3ccc(F)cc3)c(O)c2C1=O (stereo not given) | 50 | 310
12 | ≤ 10 | – | CN1CC(c2csc(N)n2)n2nc(C(=O)NCc3ccc(F)cc3)c(O)c2C1=O (stereo not given) | 500 | 1000
13 | ≤ 10 | – | CNC(=O)c1cccc(C2CN(C)C(=O)c3c(O)c(C(=O)NCc4ccc(F)cc4)nn32)c1 (stereo not given) | 1000 | 1000
14 | ≤ 10 | – | CN1CCn2nc(C(=O)NCc3ccc(F)cc3)c(O)c2C1=O | 630 | 2500
15 | 13 | – | CC1CN(C)C(=O)c2c(O)c(C(=O)NCc3ccc(F)cc3)nn21 (stereo not given) | – | –
